Data: patent US6428529B1, “Epidural administration of therapeutic compounds with sustained rate of release” (SkyePharma Inc., priority 1995, dated 2002)

Columns and labels:
[1] = system: rats; assay: Antinociception, hot plate test after epidural (or subcutaneous) dose; type: in vivo, Sprague-Dawley rats; settings: 250 μg epidural
Description: Baseline values of nociception following placement of the epidural catheter were determined by subjecting the animals to standard hot plate (52.5±0.5° C.) testing as described in M. S. Wallace et al., (Anesth. Analg. 79:778-786, 1994). Response latency to nociception (in seconds) was measured from the time when the animals were placed on the hot plate to the time when they either licked their hind paw or jumped. The baseline (pretreatment) response latency value was defined as 0% of the maximum possible analgesia (MPA) in each experimental animal. […] Following epidural administration of the test solutions via the catheter emplanted as described above, the epidural catheter was flushed with 10 μl of 0.9% sodium chloride.
Antinociception was determined in 5 or 6 animals for each dose and each drug. To prevent tissue damage to the footpads, a cutoff time of 60 seconds was used. Accordingly, 100% MPA was defined as antinociception lasting ≧60 seconds.
Efficacy and respiratory depression curves were plotted as a function of time for each dose administered. Hot plate responses were calculated as a percentage of the maximum possible analgesia (%MPA) as described in Wallace et al. (supra): [formula]
All areas under the curves were calculated by the trapezoidal rule to the last data point using the RSTRIP computer program [Micromath, Salt Lake City, Utah]. […]

[2] = system: rats; assay: Respiratory depression quantified by pulse oximetry (SpO2) after single epidural bolus; settings: for respiratory depression (decrease in SpO2): single epidural dose 10 to 2000 μg, sulfate
Description: Respiratory depression was quantified by pulse oximetry. The animals were removed from their cages, placed in polystyrene rat restraints (Plas Labs, Lansing, Mich.) and allowed to acclimate for 5 minutes. […] Pulse oximetry was performed on 5 to 6 animals at each data point, except for the 50 μg dose where 3 animals were used. The pulse oximetry values of percent hemoglobin oxygen saturation (SpO2) were monitored continuously in real time. The maximum value obtaining during the 3-minute recording period was defined as oxygen saturation.

`CN1CC[C@]23c4c5ccc(O)c4O[C@H]2[C@@H](O)C=C[C@H]3[C@H]1C5.O=S(=O)(O)O` [MS, morphine sulfate] was tested, and the “peak effect (% of maximum possible analgesia)” value [1] was ~100 % MPA, the “time to decrease to 50% MPA” value [1] was 0.17 days and the delayed respiratory depression ([2]; single epidural dose) was “no delayed respiratory depression”. The “respiratory depression (decrease in SpO2)” value ([2]; listed as free morphine) was “did cause respiratory suppression at high dosages” and the “respiratory depression (decrease in SpO2)” value [2] was “dose-dependent increase in respiratory depression”.
